Columns and labels:
human σ1 receptor = target: T1, human σ1 receptor (Homo sapiens, UniProt Q99720); experiment: Human σ1 receptor radioligand assay; conditions: transfected HEK-293 membranes, 5 nM [3H](+)-pentazocine, 37° C. 120 minutes; + may also stand for 1-50% inhibition at 1 or 10 μM; read-out: Binding σ-1 Ki
T1 construct: expressed in transfected cells; host or cells: HEK-293
Method in brief: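 Ki was derived from five test concentrations, or % inhibition was measured at a single 1 or 10 μM dose, against 5 nM [3H](+)-pentazocine. Incubation was 120 min at 37° C in 50 mM Tris-HCl pH 8 with 7 μg HEK-293 membranes, and 10 μM haloperidol set non-specific binding. Bound radioactivity was counted after filtration.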

human σ2/TMEM97 receptor = target: T2, human σ2/TMEM97 receptor (Homo sapiens, UniProt Q5BJF2); experiment: Binding assay to human σ2/TMEM97 receptor; conditions: transfected HEK-293 membranes, 10 nM [3H]-DTG, 25° C. 120 minutes; + may also stand for 1-50% inhibition at 1 or 10 μM; read-out: Binding σ-2 Ki
T2 construct: expressed in transfected cells; host or cells: HEK-293
T2 sequence (Q5BJF2 whole entry): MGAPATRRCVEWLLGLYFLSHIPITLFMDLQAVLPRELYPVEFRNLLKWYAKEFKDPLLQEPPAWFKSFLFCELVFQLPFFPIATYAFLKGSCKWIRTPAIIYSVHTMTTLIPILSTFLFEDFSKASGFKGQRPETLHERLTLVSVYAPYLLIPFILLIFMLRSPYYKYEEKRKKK
Method in brief: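 Membranes from transfected HEK-293 cells (15 µg) were incubated with 10 nM [3H]-DTG in 50 mM Tris-HCl pH 8.0 for 120 min at 25 °C, with 10 µM haloperidol defining non-specific binding. Filtration and scintillation counting followed. Compounds tested as % inhibition at 1 or 10 µM, or at five concentrations for Ki.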

T1 sequence (Q99720 whole entry): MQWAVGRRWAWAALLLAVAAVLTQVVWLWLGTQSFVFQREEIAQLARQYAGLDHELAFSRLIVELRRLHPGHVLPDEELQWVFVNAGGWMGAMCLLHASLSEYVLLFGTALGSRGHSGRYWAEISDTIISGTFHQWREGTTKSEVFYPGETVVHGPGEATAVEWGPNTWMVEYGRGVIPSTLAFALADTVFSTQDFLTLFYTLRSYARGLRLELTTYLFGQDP

| Structure (SMILES) | Ki (human σ1 receptor) [nM] | Ki (human σ2/TMEM97 receptor) [nM] |
| --- | --- | --- |
| CC(C)(C)CCN1CCC2(CCCN(S(=O)(=O)c3ccc(N4CCOCC4)nc3)C2)CC1 [Example 88, 4-(5-((9-(3,3-Dimethylbutyl)-2,9-diazaspiro[5.5]undecan-2-yl)sulfonyl)pyridin-2-yl)morpholine] | < 100 | < 100 |
| O=S(=O)(N[C@H]1CCN(Cc2ccc(F)cc2)C1)c1ccc(N2CCOCC2)nc1 [Example 41, (S)-N-(1-(4-Fluorobenzyl)pyrrolidin-3-yl)-6-morpholinopyridine-3-sulfonamide] | < 100 | > 1000 |
| CCC(=O)N(C)c1ccc(S(=O)(=O)N2CCCC3(CCN(CCC(C)(C)C)CC3)C2)cn1 [Example 104, N-(5-((9-(3,3-Dimethylbutyl)-2,9-diazaspiro[5.5]undecan-2-yl)sulfonyl)pyridin-2-yl)-N-methylpropionamide] | 100 to 500 | < 100 |
| C[C@H]1CN(Cc2ccccc2)C[C@@H]1NS(=O)(=O)c1ccc(N2CCOCC2)nc1 [Example 6, N-((3R,4S)-1-Benzyl-4-methylpyrrolidin-3-yl)-6-morpholinopyridine-3-sulfonamide] | < 100 | 500 to 1000 |
| N#Cc1ccc(CN2CCC3(CCCN(S(=O)(=O)c4ccc(N5CCOC5=O)nc4)C3)CC2)c(F)c1 [Example 125, 3-Fluoro-4-((2-((6-(2-oxooxazolidin-3-yl)pyridin-3-yl)sulfonyl)-2,9-diazaspiro[5.5]undecan-9-yl)methyl)benzonitrile] | < 100 | < 100 |
| CC(C)(C)CCN1CCC2(CC1)CCN(S(=O)(=O)c1ccc(N3CCCC3=O)nc1)C2 [Example 139, 1-(5-((8-(3,3-Dimethylbutyl)-2,8-diazaspiro[4.5]decan-2-yl)sulfonyl)pyridin-2-yl)pyrrolidin-2-one] | < 100 | < 100 |
| CC(C)(C)CCN1CCC2(CC1)CCN(S(=O)(=O)c1ccc(N3CCC4(CCOC4)CC3)nc1)CC2 [Example 68, 8-(5-((9-(3,3-Dimethylbutyl)-3,9-diazaspiro[5.5]undecan-3-yl)sulfonyl)pyridin-2-yl)-2-oxa-8-azaspiro[4.5]decane] | 100 to 500 | < 100 |
| CC(C)(C)CCN1CCCC2(CCN(S(=O)(=O)c3ccc(N4CCCC4=O)nc3)CC2)C1 [Example 136, 1-(5-((2-(3,3-Dimethylbutyl)-2,9-diazaspiro[5.5]undecan-9-yl)sulfonyl)pyridin-2-yl)pyrrolidin-2-one] | < 100 | < 100 |
| CN(C)c1ccc(S(=O)(=O)N2CCCC3(CCN(CCC(C)(C)C)CC3)C2)cn1 [Example 97, 5-((9-(3,3-Dimethylbutyl)-2,9-diazaspiro[5.5]undecan-2-yl)sulfonyl)-N,N-dimethylpyridin-2-amine] | < 100 | < 100 |
| O=S(=O)(N[C@H]1CC[C@H](NCc2ccccc2F)CC1)c1ccc(N2CCOCC2)nc1 [Example 53, N-((1r,4r)-4-((2-Fluorobenzyl)amino)cyclohexyl)-6-morpholinopyridine-3-sulfonamide] | > 1000 | 100 to 500 |
| CC(C)CCN1CCC2(CC1)CCN(S(=O)(=O)c1ccc(N3CCC(F)(F)CC3)nc1)CC2 [Example 73, 3-((6-(4,4-Difluoropiperidin-1-yl)pyridin-3-yl)sulfonyl)-9-isopentyl-3,9-diazaspiro[5.5]undecane] | 100 to 500 | < 100 |
| O=S(=O)(N[C@@H]1CCN(Cc2ccccc2)C1)c1cnc(N2CCOCC2)c(F)c1 [Example 24, (R)-N-(1-Benzylpyrrolidin-3-yl)-5-fluoro-6-morpholinopyridine-3-sulfonamide] | < 100 | 500 to 1000 |
| CC(C)(C)CCN1CCC2(CC1)CCN(S(=O)(=O)c1ccc(N3CCOC3=O)nc1)C2 [Example 138, 3-(5-((8-(3,3-Dimethylbutyl)-2,8-diazaspiro[4.5]decan-2-yl)sulfonyl)pyridin-2-yl)oxazolidin-2-one] | < 100 | < 100 |
| N#Cc1ccc(CN2CCC(NS(=O)(=O)c3ccc(N4CCOCC4)nc3)CC2)cc1 [Example 11, N-(1-(4-Cyanobenzyl)piperidin-4-yl)-6-morpholinopyridine-3-sulfonamide] | < 100 | > 1000 |
| CC(C)CCN1CCCC2(CCN(S(=O)(=O)c3ccc(N4CCC(F)(F)CC4)nc3)CC2)C1 [Example 77, 9-((6-(4,4-Difluoropiperidin-1-yl)pyridin-3-yl)sulfonyl)-2-isopentyl-2,9-diazaspiro[5.5]undecane] | < 100 | < 100 |

Further lines, results first:

| Ki (human σ1 receptor) [nM] | Ki (human σ2/TMEM97 receptor) [nM] | Structure (SMILES) |
| --- | --- | --- |
| < 100 | < 100 | CN(CCC(C)(C)C)C1CCN(S(=O)(=O)c2ccc(N3CCC(F)(F)CC3)nc2)CC1 [Example 168, 1-((6-(4,4-Difluoropiperidin-1-yl)pyridin-3-yl)sulfonyl)-N-(3,3-dimethylbutyl)-N-methylpiperidin-4-amine] |
| < 100 | < 100 | O=C1OCCN1c1ccc(S(=O)(=O)N2CCCC3(CCN(Cc4ccccc4)CC3)C2)cn1 [Example 155, 3-(5-((9-Benzyl-2,9-diazaspiro[5.5]undecan-2-yl)sulfonyl)pyridin-2-yl)oxazolidin-2-one] |
| < 100 | < 100 | CN(Cc1ccccc1)C1CCN(S(=O)(=O)c2ccc(N3CCC(F)(F)CC3)nc2)CC1 [Example 86, N-Benzyl-1-((6-(4,4-difluoropiperidin-1-yl)pyridin-3-yl)sulfonyl)-N-methylpiperidin-4-amine] |
| < 100 | > 1000 | C[C@@H]1CN(c2ccc(S(=O)(=O)N[C@H]3CCN(Cc4ccccc4)C3)cn2)C[C@H](C)O1 [Example 20, N—((S)-1-Benzylpyrrolidin-3-yl)-6-((2R,6S)-2,6-dimethylmorpholino)pyridine-3-sulfonamide] |
| 500 to 1000 | 500 to 1000 | CN(CC1CCOCC1)[C@H]1CC[C@H](NS(=O)(=O)c2ccc(N3CCC4(CCOC4)CC3)nc2)CC1 [Example 183, N-((1r,4r)-4-(Methyl((tetrahydro-2H-pyran-4-yl)methyl)amino)cyclohexyl)-6-(2-oxa-8-azaspiro[4.5]decan-8-yl)pyridine-3-sulfonamide] |
| < 100 | < 100 | CC(C)(C)CCN1CCC2(CC1)CCN(S(=O)(=O)c1ccc(N3CCC(F)(F)CC3)nc1)CC2 [Example 70, 3-((6-(4,4-Difluoropiperidin-1-yl)pyridin-3-yl)sulfonyl)-9-(3,3-dimethylbutyl)-3,9-diazaspiro[5.5]undecane] |
| < 100 | < 100 | O=C1OCCN1c1ccc(S(=O)(=O)N2CCC3(CCN(Cc4ccccc4)CC3)CC2)cn1 [Example 135, 3-(5-((9-Benzyl-3,9-diazaspiro[5.5]undecan-3-yl)sulfonyl)pyridin-2-yl)oxazolidin-2-one] |
| > 1000 | < 100 | CN(Cc1ccccc1F)[C@H]1CC[C@H](NS(=O)(=O)c2ccc(N3CCC4(CCCO4)CC3)nc2)CC1 [Example 178, N-((1r,4r)-4-((2-Fluorobenz-yl)(methyl)amino)cyclohexyl)-6-(1-oxa-8-azaspiro[4.5]decan-8-yl)pyridine-3-sulfonamide] |
| 500 to 1000 | < 100 | O=C1OCCN1c1ccc(S(=O)(=O)N2CCC3(CCN(Cc4ccccc4F)CC3)CC2)cn1 [Example 166, 3-(5-((9-(2-Fluorobenzyl)-3,9-diazaspiro[5.5]undecan-3-yl)sulfonyl)pyridin-2-yl)oxazolidin-2-one] |
